Assay results from patent publication US5314999A, “Derivatives of basic polyene macrolides and their preparation” (Laboratoires Mayoly-Spindler, priority 1989, dated 1994).
pIC50: −log10 of the molar value. Where a name gives a salt, the structure may show the parent alone. Read-outs that look alike come from different tables or passages of the source.

Assays:
Format in all cases: cell-based
Saccharomyces cerevisiae = test: Growth inhibition in liquid medium (Sabouraud broth); details: Sabouraud broth, 28° C., 18 hours, read-out: IC 50 (growth-inhibiting concentration of 50%)
Protocol: (§1) A.1 : Study of the antibiotic efficiency of AmB derivatives in liquid medium against different yeasts
(§2) The antibiotic efficiency was tested by the growth inhibition method in liquid medium (Sabouraud broth) in the presence of different concentrations of the derivatives studied.
(§3) A yeast suspension was cultivated in a broth in such a manner that about 1×10^2 cell/ml were obtained.
(§4) The tubes containing the different concentrations of antifungal substance were inoculated with the same amount of yeast cells, and were then incubated at 28° C. for 18 hours with stirring. For each concentration of antifungal substance, two identical tubes were prepared.
(§5) The inhibition of fungal growth corresponding to the different concentrations was evaluated for each molecule by spectrophotometry at 620 nm and expressed in percent with respect to a reference solution without antifungal substance.

Cryptoccocus neoformans = test: as above; details: Sabouraud broth, 28° C., 18 hours; read-out: IC 50 (growth-inhibiting concentration of 50%)
Protocol: as §1, §2, §3, §4, §5

red corpuscles [1] = test: Toxicity on red corpuscles (lysis), human; details: 37° C., 1 hour 30, 90 min, 90 min, read-out: LD 50 (dose which leads to lysis in 50% of the erythrocytes)
Protocol: (§6) B.1: Study of the toxicity on red corpuscles
(§7) All the solutions of the AmB derivatives according to the invention were prepared immediately before use by diluting 4 mg of substance in 100 μl of 5% glucose solution, and then, after 15 minutes protected from light, 100 μl of sterile distilled water are added, and the mixture is made up to stock solutions of 4 mg/ml with a 5% glucose solution. For comparative study of the effects of AmB, 4 mg of FUNGIZONE are diluted with 1 ml of 5% glucose.
(§8) The cells are prepared by placing 1 ml of a peripheral blood sample into a tube together with Ficollhypaque to remove the lymphocytes, and then centrifuging the mixture at 2000 rpm for 20 minutes. The remaining red corpuscles are recovered, washed once with 0.9% NaCl and then twice with 150 Mm KCl, 0.5 Mm tris-HCl, pH 7.4.
(§9) A 1.25% suspension is then prepared with 150 mM KCl solution, 0.5 mM tris-HCl, pH 7.4, and 150 μl thereof are distributed in wells along with 50 μl of each of the dilutions of the derivatives, plus a control well (5% glucose solution).
(§10) The cells are then incubated at 37° C. in a steam cabinet for 1 hour 30.
(§11) To evaluate the cell lysis, haemoglobin is essayed by removing 100 μl of the supernatant in each well and diluting the sample with 1 ml of distilled water.
(§12) The haemoglobin concentration is calculated by measuring the optical density at 540 nm and taking into account the absorption of the derivatives of amphotericine B.
(§13) LD 50 is the dose which leads to lysis in 50% of the erythrocytes (a control of 100% lysis is obtained with distilled water, and reference lysis of 0% is obtained with the 5% glucose solution).

red corpuscles [2] = test: Toxicity on red corpuscles (lysis), mice; details: 37° C., 1 hour 30, 90 min, read-out: LD 50 (dose which leads to lysis in 50% of the erythrocytes)
Protocol: as §6, §7, §8, §9, §10, §11, §12, §13

Aspergillus fumigatus = test: Diffusion method in agar-agar medium (Sabouraud agar-agar); details: Sabouraud agar-agar, disc diameter 1 cm, 0.1 ml
Protocol: (§14) A.2 : Study of the antibiotic efficiency of amphotericine B derivatives in agar-agar medium against Aspergillus
(§15) The antibiotic activity was tested by the diffusion method in agar-agar medium (Sabouraud agar-agar).
(§16) The efficiency of each molecule was determined by the size of the growth-inhibiting zone around a WHATMAN 3M paper disc impregnated with the antibiotic substance of a given concentration.
(§17) A suspension of Aspergillus spores in a broth was prepared, 0.2 ml of this suspension was used to inoculate at its surface an agar-agar medium which was solidified in such a manner that a homogeneous growth layer was obtained. After spreading, the WHATMAN 3M paper discs (diameter: 1 cm) were placed on the surface of the agar-agar, and then impregnated with 0.1 ml of the antibiotic substance at different concentrations.

Aspergillus flavus = test: as above; details: Sabouraud agar-agar, disc diameter 1 cm, 0.1 ml
Protocol: as §14, §15, §16, §17

thymocytes = test: Toxicity on nucleated cells, mice thymocytes; details: 1 hour 30, trypan blue, 90 min, read-out: LD 50 (concentration leading to a mortality of 50%)
DAUDI (human lymphoma B) = test: Toxicity on nucleated cells, DAUDI human lymphoma B; details: 1 hour 30, trypan blue, 90 min, read-out: LD 50 (concentration leading to a mortality of 50%)
PBL = test: Toxicity on nucleated cells, human PBL; details: 90 min
Protocol: (§18) B.2: Study of the toxicity on nucleated cells
(§19) The solutions of the amphotericine B derivatives are prepared similarly to those mentioned in paragraph B.1.
(§20) The cells are prepared by placing 20 ml of blood diluted to 1/2 with 0.9% NaCl into a tube together with 10 ml of Ficoll-hypaque, and the mixture is centrifuged at 2000 rpm for 30 minutes. The cell nuclei are recovered and washed twice with PBS buffer containing 5% of foetal calf serum.
(§21) The cells are prepared by suspending 1.14×10^6 cells/ml in RPMI 1640 containing 2.5% of foetal calf serum and by filling each well with 150 μl. 50 μl of each dilution of the derivatives are added and also one control (5% glucose solution).
(§22) The cells are then incubated in a steam cabinet at a CO2 concentration of 5% for 1 hour 30 at 37° C. or at ambient temperature.
(§23) To evaluate the toxicity of the derivatives, a cell count in the presence of trypan blue is made, and the LD 50 (concentration of the derivative leading to a mortality of 50%) is calculated with respect to the control (5% glucose solution) for each concentration of each derivative.

X 63 (mice lymphoma B) = test: Toxicity on nucleated cells, X 63 mice lymphoma B; details: 1 hour 30, trypan blue, 90 min, read-out: LD 50 (concentration leading to a mortality of 50%)
Candida albicans = test: Growth inhibition in liquid medium (Sabouraud broth); details: Sabouraud broth, 28° C., 18 hours, read-out: IC 50 (growth-inhibiting concentration of 50%)
Protocol: as §1, §2, §3, §4, §5

[3] = Toxicity on nucleated cells, mice T lymph gland cells; details: mouse, 1 hour 30, trypan blue, read-out: LD 50 (concentration leading to a mortality of 50%)
Protocol: as §18, §19, §20, §21, §22, §23

[4] = Toxicity on nucleated cells, mice B lymph gland cells; details: mouse, 1 hour 30, trypan blue, read-out: LD 50 (concentration leading to a mortality of 50%)
Protocol: as §18, §19, §20, §21, §22, §23

Pytirosporum orbiculare = test: Growth inhibition in liquid medium (Sabouraud broth); details: Sabouraud broth, 28° C., 18 hours; read-out: IC 50 (growth-inhibiting concentration of 50%)
Protocol: as §1, §2, §3, §4, §5

[5] = Toxicity on nucleated cells, human thymocytes; details: 1 hour 30, trypan blue, read-out: LD 50 (concentration leading to a mortality of 50%)
Protocol: as §18, §19, §20, §21, §22, §23

[6] = Toxicity on nucleated cells, human bone marrow; details: 1 hour 30, trypan blue, read-out: LD 50 (concentration leading to a mortality of 50%)
Protocol: as §18, §19, §20, §21, §22, §23

[7] = Toxicity on nucleated cells, mice thymocytes; details: mouse, thymocytes, 1 hour 30, trypan blue, read-out: LD 50 (concentration leading to a mortality of 50%)
[8] = human PBL, 1 hour 30, trypan blue, read-out: LD 50 (concentration leading to a mortality of 50%)

SMILES	pIC50 (Saccharomyces cerevisiae)	pIC50 (Cryptoccocus neoformans)	HC50 (red corpuscles [1])	HC50 (red corpuscles [2]; 90 min)	concentration giving a growth inhibition of 1 cm around a disc in solid medium (Aspergillus fumigatus)	concentration giving a growth inhibition of 1 cm around a disc in solid medium (Aspergillus flavus)	CC50 (thymocytes)	CC50 (DAUDI (human lymphoma B))	CC50 (PBL; [8])	CC50 (X 63 (mice lymphoma B))	pIC50 (Candida albicans)	further results
CC(=O)NC[C@H]1OC(O)(CN[C@@H]2[C@H](O)[C@H](O[C@H]3/C=C/C=C/C=C/C=C/C=C/C=C/C=C/[C@H](C)[C@@H](O)[C@@H](C)[C@H](C)OC(=O)C[C@H](O)C[C@H](O)CC[C@@H](O)[C@H](O)C[C@H](O)C[C@]4(O)C[C@H](O)[C@@H](C(=O)O)[C@H](C3)O4)O[C@H](C)[C@H]2O)[C@@H](O)[C@@H]1O (stereo partly drawn) [AmB 23 G, 6-deoxy-6-N-acetyl-1-deoxy-1-amino-fructosyl-AmB]	6.00	6.77	1 µM	4 µM	9 × 10^-5 molarity	5 × 10^-4 molarity	2.5 µM	300 µM	8 µM	500 µM		
CC1OC[C@@H](O)[C@H]([C@H](O)C(=O)CN[C@@H]2[C@H](O)[C@H](O[C@H]3/C=C/C=C/C=C/C=C/C=C/C=C/C=C/[C@H](C)[C@@H](O)[C@@H](C)[C@H](C)OC(=O)C[C@H](O)C[C@H](O)CC[C@@H](O)[C@H](O)C[C@H](O)C[C@]4(O)C[C@H](O)[C@@H](C(=O)O)[C@H](C3)O4)O[C@H](C)[C@H]2O)O1 (stereo partly drawn) [AmB 22 G, 1-deoxy-1-amino-4,6-O-ethylidene-D-fructosyl-AmB]	5.92	6.92	50 µM	10 µM	1 × 10^-4 molarity	9 × 10^-5 molarity	5 µM	700 µM	30 µM	400 µM	7.05	
C[C@@H]1[C@H](O)[C@@H](C)/C=C/C=C/C=C/C=C/C=C/C=C/C=C/[C@H](O[C@@H]2O[C@H](C)[C@@H](O)[C@H](NCC3(O)O[C@H](C(N)=O)[C@@H](O)[C@@H]3O)[C@@H]2O)C[C@@H]2O[C@](O)(C[C@@H](O)C[C@@H](O)[C@H](O)CC[C@@H](O)C[C@@H](O)CC(=O)O[C@H]1C)C[C@H](O)[C@H]2C(=O)O (stereo partly drawn) [Acetic acid NMG salt]												CC50 (PBL; human PBLs, AmB 12 derivative, comparison of different catalysts (Table 4), read-out: LD 50 (the source's name)): 200 µM
C[C@@H]1[C@H](O)[C@@H](C)/C=C/C=C/C=C/C=C/C=C/C=C/C=C/[C@H](O[C@@H]2O[C@H](C)[C@@H](O)[C@H](NCC3(O)O[C@H](C(=O)O)[C@@H](O)[C@@H]3O)[C@@H]2O)C[C@@H]2O[C@](O)(C[C@@H](O)C[C@@H](O)[C@H](O)CC[C@@H](O)C[C@@H](O)CC(=O)O[C@H]1C)C[C@H](O)[C@H]2C(=O)O (stereo partly drawn) [AmB 17 G, 1-amino-1-deoxy-D-arabinoglucuronyl-AmB]	6.07	7.22	50 µM	10 µM	3.5 × 10^-5 molarity	9 × 10^-5 molarity	5 µM	300 µM	10 µM	150 µM		
C[C@@H]1[C@H](O)[C@@H](C)/C=C/C=C/C=C/C=C/C=C/C=C/C=C/[C@H](O[C@@H]2O[C@H](C)[C@@H](O)[C@H](NCC3(O)O[C@H](C(N)=O)[C@@H](O)[C@@H]3O)[C@@H]2O)C[C@@H]2O[C@](O)(C[C@@H](O)C[C@@H](O)[C@H](O)CC[C@@H](O)C[C@@H](O)CC(=O)O[C@H]1C)C[C@H](O)[C@H]2C(=O)O (stereo partly drawn) [AmB 12 G, 1-amino-1-deoxy-D-arabinoglucuronamidyl-AmB]	6.21		30 µM		1 × 10^-4 molarity	9 × 10^-5 molarity	5 µM	> 300 µM	46 µM	500 µM	7.00	HC50 (red corpuscles [2]): 20 µM
C[C@@H]1[C@H](O)[C@@H](C)/C=C/C=C/C=C/C=C/C=C/C=C/C=C/[C@H](O[C@@H]2O[C@H](C)[C@@H](O)[C@H](NCC3(O)O[C@H](C(=O)O)[C@@H](O)[C@@H]3O)[C@@H]2O)C[C@@H]2O[C@](O)(C[C@@H](O)C[C@@H](O)[C@H](O)CC[C@@H](O)C[C@@H](O)CC(=O)O[C@H]1C)C[C@H](O)[C@H]2C(=O)O (stereo partly drawn) [AmB 17 F, 1-amino-1-deoxy-D-arabinoglucuronyl-AmB]		6.82	200 µM	30 µM	2 × 10^-4 molarity	2 × 10^-4 molarity		> 1000 µM	> 1000 µM	> 1000 µM		CC50 at 1.5 h [3]: 20 µM; CC50 at 1.5 h [4]: 150 µM; pIC50 (Pytirosporum orbiculare): 7.05; pIC50 (Candida albicans; Candida albicans, 18 h): 6.89; pIC50 (Saccharomyces cerevisiae; Saccharomyces cerevisiae, 18 h): 5.85; CC50 at 1.5 h [5]: > 300 µM; CC50 at 1.5 h [6]: > 1000 µM; CC50 at 1.5 h [7]: 8 µM
C[C@@H]1[C@H](O)[C@@H](C)/C=C/C=C/C=C/C=C/C=C/C=C/C=C/[C@H](O[C@@H]2O[C@H](C)[C@@H](O)[C@H](NCC(=O)[C@@H](O)[C@@H]3OC(c4ccccc4)OC[C@H]3O)[C@@H]2O)C[C@@H]2O[C@](O)(C[C@@H](O)C[C@@H](O)[C@H](O)CC[C@@H](O)C[C@@H](O)CC(=O)O[C@H]1C)C[C@H](O)[C@H]2C(=O)O (stereo partly drawn) [AmB 20 G, 1-deoxy-1-amino-4,6O-benzylidene-D-fructosyl-AmB]	6.00	7.22	80 µM	4 µM	1.3 × 10^-4 molarity	6 × 10^-4 molarity	4 µM	500 µM	30 µM	150 µM	7.00	
